Data from PubChem BioAssay AID328 (DTP/NCI, 2004).
Several values for one entry are separate records, joined by “and”; a condition that tells them apart may be missing. Equal entries are not always repeated. Inconclusive results and toxic doses are left out. How the source made its calls: active means survival T/C of 150% or more; inactive means T/C below 125% in these data. Starred links: 1 amine or outer side, 2 acyl side, 3 side chain; linkers in the order of their positions; H or OH if unused. Positions of bridges follow the written chain, without caps; N, C: chain ends. Non-standard residues stand in square brackets, D forms with d. Residues, ends and D or L forms follow the SMILES beside them. Chains are numbered I, II in the order given. Actinocin(9to1) = Cc1c2oc3c(C)ccc(C(=O)[*:1])c3nc-2c(C(=O)[*:2])c(N)c1=O; NMeV = CN[CH](C(=O)O)C(C)C; Aze = O=C(O)[CH]1CCN1; Sar = CNCC(=O)O

System: BDF1 mice, P388 leukemia ip, median survival T/C
Experiment: NCI In Vivo Anticancer Drug Screen. Data for tumor model P388 Leukemia (intraperitoneal) in B6D2F1 (BDF1) mice
Conditions: endpoint: median survival time, higher = longer survival
How it was run: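 Survival ratio, drug arm over vehicle arm, in mice with a transplanted tumour.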

[1] = dose: 50.0 mg/kg/injection, schedule: Q01DX009 (ip), vehicle: saline
[2] = dose: 100.0 mg/kg/injection, schedule: Q01DX009 (ip), vehicle: saline
[3] = dose: 50.0 mg/kg/injection, schedule: Q04DX003 (ip), vehicle: saline with Tween-80
[4] = dose: 100.0 mg/kg/injection, schedule: Q01DX009 (ip), vehicle: saline with Tween-80
[5] = dose: 100.0 mg/kg/injection, schedule: Q04DX003 (ip), vehicle: saline with Tween-80
[6] = dose: 200.0 mg/kg/injection, schedule: Q01DX009 (ip), vehicle: saline with Tween-80
[7] = dose: 200.0 mg/kg/injection, schedule: Q04DX003 (ip), vehicle: saline with Tween-80
[8] = dose: 400.0 mg/kg/injection, schedule: Q04DX003 (ip), vehicle: saline with Tween-80
[9] = dose: 50.0 mg/kg/injection, schedule: Q01DX009 (ip), vehicle: saline with Tween-80

Measured: T/C

ClC(c1ccccc1)C1(Br)C=c2ccccc2=C1 (centres undefined)
inactive: dose: 50.0 mg/kg/injection, schedule: Q01DX009 (ip), vehicle: Klucel (hydroxypropylcellulose) (HPC) 95 % of control | dose: 50.0 mg/kg/injection, schedule: Q04DX003 (ip), vehicle: Klucel (hydroxypropylcellulose) (HPC) 95 % of control | dose: 100.0 mg/kg/injection, schedule: Q01DX009 (ip), vehicle: Klucel (hydroxypropylcellulose) (HPC) 90 % of control | dose: 100.0 mg/kg/injection, schedule: Q04DX003 (ip), vehicle: Klucel (hydroxypropylcellulose) (HPC) 91 % of control | dose: 200.0 mg/kg/injection, schedule: Q04DX003 (ip), vehicle: Klucel (hydroxypropylcellulose) (HPC) 100 % of control

C1CCNCC1.COc1ccccc1C(=O)[CH-]C(=O)C(F)(F)F.COc1ccccc1C(=O)[CH-]C(=O)C(F)(F)F.COc1ccccc1C(=O)[CH-]C(=O)C(F)(F)F.COc1ccccc1C(=O)[CH-]C(=O)C(F)(F)F.[Eu+3]
inactive: [1] 88 % of control | [2] 119 % of control

CC1CCC(NC2=NCCO2)C(C)C1 (centres undefined)
inactive: dose: 12.5 mg/kg/injection, schedule: Q04DX003 (ip), vehicle: saline with Tween-80 95 % of control | dose: 25.0 mg/kg/injection, schedule: Q04DX003 (ip), vehicle: saline with Tween-80 100 % of control | [3] 100 % of control

c1ccc(COCC[P+](c2ccccc2)(c2ccccc2)c2ccccc2)cc1
inactive: dose: 2.5 mg/kg/injection, schedule: Q01DX010 (ip), vehicle: saline 90 % of control | dose: 5.0 mg/kg/injection, schedule: Q01DX010 (ip), vehicle: saline 100 % of control | dose: 10.0 mg/kg/injection, schedule: Q01DX010 (ip), vehicle: saline 113 % of control

O=C1C(N2CCOCC2)=Cc2cccc3cccc1c23
inactive: [3] 99 % of control | [4] 101 % of control | [5] 96 % of control | [6] 90 % of control | [7] 88 % of control | [8] 99 % of control

C[N+](C)(Cn1ncc2cc([N+](=O)[O-])ccc21)Cn1ncc2cc([N+](=O)[O-])ccc21
inactive: [5] 113 % of control | [7] 104 % of control

c1ccc(-c2ncc3cnccn23)cc1
inactive: dose: 3.12 mg/kg/injection, schedule: Q01DX009 (ip), vehicle: saline 100 % of control | dose: 6.25 mg/kg/injection, schedule: Q01DX009 (ip), vehicle: saline 100 % of control | dose: 12.5 mg/kg/injection, schedule: Q01DX009 (ip), vehicle: saline 100 % of control | dose: 12.5 mg/kg/injection, schedule: Q04DX003 (ip), vehicle: saline 114 % of control | dose: 25.0 mg/kg/injection, schedule: Q04DX003 (ip), vehicle: saline 116 % of control | [1] 88 % of control | dose: 50.0 mg/kg/injection, schedule: Q04DX003 (ip), vehicle: saline 105 % of control | dose: 100.0 mg/kg/injection, schedule: Q04DX003 (ip), vehicle: saline 107 % of control

CC1=CC=CC2=NC(=O)CCN12
inactive: [9] 94 % of control | [4] 94 % of control | [6] 100 % of control

Nc1ccc(OC(=O)Oc2ccc(N)cc2)cc1
inactive: dose: 264.0 mg/kg/injection, schedule: Q01DX009 (ip), vehicle: saline with Tween-80 100 % of control | dose: 400.0 mg/kg/injection, schedule: Q01DX009 (ip), vehicle: saline with Tween-80 104 % of control

O=C1CCC(NC2OC(=O)c3ccccc32)C(=O)O1 (centres undefined)
inactive: [9] 111 % of control | [4] 102 % of control | [6] 109 % of control

ClCC1CCN(CCc2ccccc2)CC1
inactive: [1] 95 % of control | [2] 99 % of control

Cc1c2oc3c(C)ccc(C(=O)NC4C(=O)NC(C(C)C)C(=O)N5CCC5C(=O)N(C)CC(=O)N(C)C(C(C)C)C(=O)OC4C)c3nc-2c(C(=O)NC2C(=O)NC(C(C)C)C(=O)N3CCC3C(=O)N(C)CC(=O)N(C)C(C(C)C)C(=O)OC2C)c(N)c1=O (centres undefined) (I: TV[Aze][Sar][NMeV] / II: TV[Aze][Sar][NMeV]; ester I:1-I:C, II:1-II:C; linker I:N-II:N via Actinocin(9to1); configuration not given here)
active: dose: 0.26 mg/kg/injection, schedule: Q04DX003 (ip), vehicle: saline 226 % of control | dose: 0.4 mg/kg/injection, schedule: Q04DX003 (ip), vehicle: saline 180 % of control | dose: 0.6 mg/kg/injection, schedule: Q04DX003 (ip), vehicle: saline 319 % of control | dose: 12.5 micrograms/kg/injection, schedule: Q01DX009 (ip), vehicle: saline + alcohol 190 % of control | dose: 25.0 micrograms/kg/injection, schedule: Q01DX009 (ip), vehicle: saline + alcohol 197 % of control | dose: 50.0 micrograms/kg/injection, schedule: Q01DX009 (ip), vehicle: saline + alcohol 239 % of control | dose: 75.0 micrograms/kg/injection, schedule: Q01DX009 (ip), vehicle: saline + alcohol 237 % of control | dose: 100.0 micrograms/kg/injection, schedule: Q01DX009 (ip), vehicle: saline + alcohol 260 % of control | dose: 112.5 micrograms/kg/injection, schedule: Q01DX009 (ip), vehicle: saline + alcohol 274 % of control | dose: 150.0 micrograms/kg/injection, schedule: Q01DX009 (ip), vehicle: saline + alcohol 274 % of control | dose: 150.0 micrograms/kg/injection, schedule: Q04DX003 (ip), vehicle: saline + alcohol 218 % of control | dose: 200.0 micrograms/kg/injection, schedule: Q01DX009 (ip), vehicle: saline + alcohol 166 % of control | dose: 216.0 micrograms/kg/injection, schedule: Q04DX003 (ip), vehicle: saline + alcohol 207 % of control | dose: 225.0 micrograms/kg/injection, schedule: Q04DX003 (ip), vehicle: saline + alcohol 212 % of control | dose: 360.0 micrograms/kg/injection, schedule: Q04DX003 (ip), vehicle: saline + alcohol 225 % of control | dose: 450.0 micrograms/kg/injection, schedule: Q04DX003 (ip), vehicle: saline + alcohol 238 % of control and 336 % of control
inactive: dose: 225.0 micrograms/kg/injection, schedule: Q01DX009 (ip), vehicle: saline + alcohol 108 % of control | dose: 300.0 micrograms/kg/injection, schedule: Q01DX009 (ip), vehicle: saline + alcohol 113 % of control | dose: 900.0 micrograms/kg/injection, schedule: Q04DX003 (ip), vehicle: saline + alcohol 88 % of control and 117 % of control | dose: 1000.0 micrograms/kg/injection, schedule: Q04DX003 (ip), vehicle: saline + alcohol 97 % of control | dose: 1200.0 micrograms/kg/injection, schedule: Q04DX003 (ip), vehicle: saline + alcohol 102 % of control

O=c1cc[nH]c(=O)o1
active: dose: 19.0 mg/kg/injection, schedule: Q01DX009 (ip), vehicle: water 157 % of control | dose: 28.0 mg/kg/injection, schedule: Q01DX009 (ip), vehicle: water 169 % of control | dose: 42.0 mg/kg/injection, schedule: Q01DX009 (ip), vehicle: water 168 % of control
inactive: dose: 63.0 mg/kg/injection, schedule: Q01DX009 (ip), vehicle: water 94 % of control

CC(Br)C(=O)NC(C)C(=O)O (centres undefined)
inactive: [5] 100 % of control | [7] 109 % of control | [8] 118 % of control

CC(O)C(=O)Oc1ccccc1 (centres undefined)
inactive: [2] 90 % of control | dose: 200.0 mg/kg/injection, schedule: Q01DX009 (ip), vehicle: saline 109 % of control

O=C1C=C2SCCN2C(=O)C1
inactive: dose: 25.0 mg/kg/injection, schedule: Q01DX009 (ip), vehicle: saline with Tween-80 99 % of control | [9] 99 % of control and 109 % of control | [4] 97 % of control and 124 % of control | [6] 105 % of control and 114 % of control

CC1=NN(c2ccccc2)C(=O)C1C(=S)SC1CC(=O)OC1=O (centres undefined)
inactive: [9] 100 % of control | [4] 112 % of control

CCOC(=O)C/C(C)=N\NC(=O)c1ccncc1
inactive: dose: 75.0 mg/kg/injection, schedule: Q01DX009 (ip), vehicle: saline with Tween-80 88 % of control | dose: 150.0 mg/kg/injection, schedule: Q01DX009 (ip), vehicle: saline with Tween-80 102 % of control

O=[N+]([O-])c1ccc(N2CCCC2)c2c1no[n+]2[O-]
inactive: [3] 101 % of control | [5] 101 % of control | [7] 108 % of control

S=c1nc[nH]c2c1ncn2C1CCCC1
inactive: [4] 104 % of control | [6] 95 % of control

CCC(C(=O)O)c1ccccc1 (centres undefined)
inactive: [9] 90 % of control | [6] 109 % of control

N.N.N.NC(Cc1cnc[nH]1)C(=O)[O-].O=[N+]([O-])[O-].[Co+3] (centres undefined)
inactive: dose: 2.0 mg/kg/injection, schedule: Q01DX009 (ip), vehicle: saline 89 % of control | dose: 4.0 mg/kg/injection, schedule: Q01DX009 (ip), vehicle: saline 95 % of control and 110 % of control and 113 % of control | dose: 8.0 mg/kg/injection, schedule: Q01DX009 (ip), vehicle: saline 100 % of control and 110 % of control | dose: 20.0 mg/kg/injection, schedule: Q01DX009 (ip), vehicle: saline 120 % of control | dose: 25.0 mg/kg/injection, schedule: Q01DX009 (ip), vehicle: saline 90 % of control
